“And” between values parts separate entries of the source, which are not always exact repeats. Identical values can stand only once. Toxic doses and inconclusive results are not listed.
Test system: BDF1 mice, P388 leukemia ip, median survival T/C
Assay: NCI In Vivo Anticancer Drug Screen. Data for tumor model P388 Leukemia (intraperitoneal) in B6D2F1 (BDF1) mice
Conditions: endpoint: median survival time, higher = longer survival
How it was run: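 Vehicle-dosed animals serve as the reference; survival of compound-dosed, tumour-implanted mice is divided by it.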

[1] = dose: 100.0 mg/kg/injection, schedule: Q01DX009 (ip), vehicle: saline with Tween-80
[2] = dose: 100.0 mg/kg/injection, schedule: Q04DX003 (ip), vehicle: saline with Tween-80
[3] = dose: 200.0 mg/kg/injection, schedule: Q01DX009 (ip), vehicle: saline with Tween-80
[4] = dose: 200.0 mg/kg/injection, schedule: Q04DX003 (ip), vehicle: saline with Tween-80
[5] = dose: 400.0 mg/kg/injection, schedule: Q04DX003 (ip), vehicle: saline with Tween-80
[6] = dose: 100.0 mg/kg/injection, schedule: Q01DX009 (ip), vehicle: Klucel (hydroxypropylcellulose) (HPC)
[7] = dose: 200.0 mg/kg/injection, schedule: Q01DX009 (ip), vehicle: Klucel (hydroxypropylcellulose) (HPC)
[8] = dose: 400.0 mg/kg/injection, schedule: Q01DX009 (ip), vehicle: Klucel (hydroxypropylcellulose) (HPC)
[9] = dose: 25.0 mg/kg/injection, schedule: Q01DX009 (ip), vehicle: saline with Tween-80
[10] = dose: 50.0 mg/kg/injection, schedule: Q01DX009 (ip), vehicle: saline with Tween-80
[11] = dose: 50.0 mg/kg/injection, schedule: Q01DX009 (ip), vehicle: Klucel (hydroxypropylcellulose) (HPC)
[12] = dose: 50.0 mg/kg/injection, schedule: Q04DX003 (ip), vehicle: Klucel (hydroxypropylcellulose) (HPC)
[13] = dose: 100.0 mg/kg/injection, schedule: Q04DX003 (ip), vehicle: Klucel (hydroxypropylcellulose) (HPC)
[14] = dose: 200.0 mg/kg/injection, schedule: Q04DX003 (ip), vehicle: Klucel (hydroxypropylcellulose) (HPC)
[15] = dose: 25.0 mg/kg/injection, schedule: Q01DX009 (ip), vehicle: saline
[16] = dose: 100.0 mg/kg/injection, schedule: Q01DX009 (ip), vehicle: saline
[17] = dose: 12.5 mg/kg/injection, schedule: Q01DX009 (ip), vehicle: saline

For O=C1CN(c2ccccc2)CC(=O)N2Cc3ccccc3CN12, the T/C (dose: 100.0 mg/kg/injection, schedule: Q01DX005 (ip), vehicle: saline with Tween-80) was 101 % of control.

In the case of CCCCCCCCSc1ncnc2nc[nH]c12, the T/C [1] is reported as 108 % of control, the T/C [2] is reported as 100 % of control and the T/C [3] is reported as 87 % of control. For the same compound, the T/C [4] was 100 % of control, the T/C (dose: 400.0 mg/kg/injection, schedule: Q01DX009 (ip), vehicle: saline with Tween-80) was 108 % of control and the T/C [5] was 100 % of control.

For O=CCC(O)C(O)C(O)CO (centres undefined), the T/C (dose: 94.0 mg/kg/injection, schedule: Q01DX010 (ip), vehicle: saline) was 100 % of control, the T/C (dose: 188.0 mg/kg/injection, schedule: Q01DX010 (ip), vehicle: saline) was 100 % of control and the T/C (dose: 375.0 mg/kg/injection, schedule: Q01DX010 (ip), vehicle: saline) was 113 % of control. The T/C (dose: 750.0 mg/kg/injection, schedule: Q01DX010 (ip), vehicle: saline) was 100 % of control.

O=C(O)c1ccc(NS(=O)(=O)Cc2ccccc2)cc1 was tested, and the T/C [6] was 123 % of control, the T/C [7] was 123 % of control and the T/C [8] was 123 % of control.

CC1(C)OC1CC1=CC(=O)C=CC1=O (centres undefined) was tested, and the T/C [9] was 108 % of control, the T/C [10] was 103 % of control and the T/C [1] was 100 % of control. The T/C [3] was 117 % of control.

For CC(=O)NCC(S)c1ccc(Cl)cc1 (centres undefined), the T/C [2] was 118 % of control, the T/C [4] was 95 % of control and the T/C [5] was 90 % of control.

O=[N+]([O-])O.[Ag] was tested, and the T/C (dose: 10.0 mg/kg/injection, schedule: Q01DX009 (ip), vehicle: saline with Tween-80) was 96 % of control, the T/C (dose: 40.0 mg/kg/injection, schedule: Q01DX009 (ip), vehicle: saline with Tween-80) was 92 % of control and the T/C (dose: 40.0 mg/kg/injection, schedule: Q04DX003 (ip), vehicle: saline with Tween-80) was 90 % of control.

For O=C1OC(=O)c2c1ccc(Br)c2Br, the T/C [6] was 100 % of control, the T/C [7] was 90 % of control and the T/C [8] was 90 % of control.

For O=C(NNc1ccccc1)c1ccccc1, the T/C [11] was 105 % of control, the T/C [12] was 109 % of control and the T/C [6] was 105 % of control. The T/C [13] was 104 % of control, the T/C [7] was 120 % of control and the T/C [14] was 100 % of control.

For COc1ccc(/C=C/C(=O)c2ccc3cc(OC)c(OC)cc3c2)cc1OC, the T/C [15] was 98 % of control, the T/C (dose: 50.0 mg/kg/injection, schedule: Q01DX009 (ip), vehicle: saline) was 91 % of control and the T/C [16] was 87 % of control. For the same compound, the T/C (dose: 200.0 mg/kg/injection, schedule: Q01DX009 (ip), vehicle: saline) was 100 % of control and the T/C (dose: 400.0 mg/kg/injection, schedule: Q01DX009 (ip), vehicle: saline) was 91 % of control.

For COc1ccc2c(c1)c1c(C)c3cnccc3c(C)c1n2CCCN, the T/C (dose: 1.56 mg/kg/injection, schedule: Q01DX009 (ip), vehicle: saline) was 95 % of control, the T/C (dose: 3.12 mg/kg/injection, schedule: Q01DX009 (ip), vehicle: saline) was 95 % of control and the T/C (dose: 3.12 mg/kg/injection, schedule: Q04DX003 (ip), vehicle: saline) was 112 % of control. For the same compound, the T/C (dose: 6.25 mg/kg/injection, schedule: Q01DX009 (ip), vehicle: saline) was 111 % of control, the T/C (dose: 6.25 mg/kg/injection, schedule: Q04DX003 (ip), vehicle: saline) was 121 % of control and the T/C [17] was 105 % of control. The T/C (dose: 12.5 mg/kg/injection, schedule: Q04DX003 (ip), vehicle: saline) was 107 % of control and the T/C (dose: 25.0 mg/kg/injection, schedule: Q04DX003 (ip), vehicle: saline) was 101 % of control and 104 % of control.

For Cc1cc(=O)[nH]c2cc(Br)ccc12, the T/C (dose: 100.0 mg/kg/injection, schedule: Q01DX001 (ip), vehicle: saline with Tween-80) was 104 % of control, the T/C (dose: 200.0 mg/kg/injection, schedule: Q01DX001 (ip), vehicle: saline with Tween-80) was 90 % of control and the T/C (dose: 400.0 mg/kg/injection, schedule: Q01DX001 (ip), vehicle: saline with Tween-80) was 90 % of control.

In the case of O=C(OCC#CC#CCOC(=O)c1cccc2ccccc12)c1cccc2ccccc12, the T/C [6] is reported as 100 % of control, the T/C [7] is reported as 95 % of control and the T/C [8] is reported as 105 % of control.

CC(C)[C@]12O[C@H]1[C@@H]1O[C@]13[C@]1(O[C@H]1C[C@H]1C4=C(C(=O)OC4)[C@@H](O)C[C@@]13C)[C@@H]2O was tested, and the T/C (dose: 0.03 mg/kg/injection, schedule: Q01DX009 (ip), vehicle: saline + alcohol) was 100 % of control and 106 % of control, the T/C (dose: 0.06 mg/kg/injection, schedule: Q01DX009 (ip), vehicle: saline + alcohol) was 113 % of control and 117 % of control and the T/C (dose: 0.13 mg/kg/injection, schedule: Q01DX009 (ip), vehicle: saline + alcohol) was 120 % of control. For the same compound, the T/C (dose: 0.25 mg/kg/injection, schedule: Q01DX009 (ip), vehicle: saline + alcohol) was 150 % of control, the T/C (dose: 3.8 micrograms/kg/injection, schedule: Q01DX009 (ip), vehicle: saline) was 104 % of control and the T/C (dose: 6.5 micrograms/kg/injection, schedule: Q01DX009 (ip), vehicle: saline) was 104 % of control. For the same compound, the T/C (dose: 13.0 micrograms/kg/injection, schedule: Q01DX009 (ip), vehicle: saline) was 95 % of control, the T/C (dose: 25.0 micrograms/kg/injection, schedule: Q01DX009 (ip), vehicle: saline) was 109 % of control and the T/C (dose: 100.0 micrograms/kg/injection, schedule: Q01DX009 (ip), vehicle: saline + alcohol) was 90 % of control.

In the case of C/C(=N\N1CCCCCC1)c1ccccc1, the T/C (dose: 50.0 mg/kg/injection, schedule: Q04DX003 (sc), vehicle: olive oil, sesame oil, peanut oil) is reported as 95 % of control, the T/C (dose: 100.0 mg/kg/injection, schedule: Q04DX003 (sc), vehicle: olive oil, sesame oil, peanut oil) is reported as 95 % of control and the T/C (dose: 200.0 mg/kg/injection, schedule: Q04DX003 (sc), vehicle: olive oil, sesame oil, peanut oil) is reported as 91 % of control.

In the case of COC(=O)/C=C/c1cccnc1, the T/C (dose: 25.0 mg/kg/injection, schedule: Q04DX003 (ip), vehicle: Klucel (hydroxypropylcellulose) (HPC)) is reported as 100 % of control, the T/C [12] is reported as 90 % of control and the T/C [13] is reported as 95 % of control. For the same compound, the T/C [14] was 90 % of control.

With CCN(CC)CCNc1ccc(C)c2sc3ccccc3c(=O)c12 the T/C [17] was 97 % of control, the T/C [15] was 109 % of control and the T/C (dose: 50.0 mg/kg/injection, schedule: Q01DX010 (ip), vehicle: saline) was 150 % of control and 170 % of control. For the same compound, the T/C [16] was 158 % of control and the T/C (dose: 100.0 mg/kg/injection, schedule: Q01DX010 (ip), vehicle: saline) was 90 % of control.

In the case of CCCCCCCCCCCC[n+]1cccc2ccccc21, the T/C (dose: 0.15 mg/kg/injection, schedule: Q01DX009 (ip), vehicle: saline) is reported as 100 % of control, the T/C (dose: 0.17 mg/kg/injection, schedule: Q04DX003 (ip), vehicle: saline) is reported as 118 % of control and the T/C (dose: 0.34 mg/kg/injection, schedule: Q01DX009 (ip), vehicle: saline) is reported as 90 % of control and 122 % of control. For the same compound, the T/C (dose: 0.35 mg/kg/injection, schedule: Q01DX009 (ip), vehicle: saline) was 163 % of control, the T/C (dose: 0.35 mg/kg/injection, schedule: Q04DX003 (ip), vehicle: saline) was 122 % of control and the T/C (dose: 0.7 mg/kg/injection, schedule: Q01DX009 (ip), vehicle: saline) was 157 % of control. For the same compound, the T/C (dose: 0.7 mg/kg/injection, schedule: Q04DX003 (ip), vehicle: saline) was 118 % of control.

In the case of CCCCOCNc1ncccn1, the T/C [10] is reported as 100 % of control and 105 % of control, the T/C [1] is reported as 98 % of control and 112 % of control and the T/C [3] is reported as 100 % of control.

COC(=O)C1C(O)C(C)C(O)C(C)C=C(C)C2=C3C(=C(C)C(=O)c4c(O)c(c(C)c(OC(C)=O)c43)NC(=O)C(C)=C/C=C\C(C)C(O)C(C)C1O)OCO2 (centres undefined) was tested, and the T/C (dose: 25.0 mg/kg/injection, schedule: Q01DX009 (ip), vehicle: Klucel (hydroxypropylcellulose) (HPC)) was 101 % of control, the T/C [9] was 90 % of control and the T/C [11] was 110 % of control and 97 % of control. The T/C [10] was 109 % of control, the T/C [6] was 101 % of control and 113 % of control and the T/C [1] was 90 % of control.
